Experiments:
[1] = biological target: T1, human metastin receptor hOT7T175 (Homo sapiens, UniProt Q969F8, L364H); assay: binding inhibiting activity: 125I-metastin (40-54) binding to cell membrane fraction of h175 KB34 cells; details: room temperature 60 minutes, read-out: binding inhibiting activity, represented by the IC50 value
T1 construct: encoding the entire length of human metastin receptor hOT7T175; expressed in transfected cells; host or cells: CHO/dhFr- cells (ATCC #CRL-9096) stably transfected with pAKKO-hOT7T175; clone h175-16 was used as whole cells for FLIPR
T1 sequence (Q969F8 whole entry L364H): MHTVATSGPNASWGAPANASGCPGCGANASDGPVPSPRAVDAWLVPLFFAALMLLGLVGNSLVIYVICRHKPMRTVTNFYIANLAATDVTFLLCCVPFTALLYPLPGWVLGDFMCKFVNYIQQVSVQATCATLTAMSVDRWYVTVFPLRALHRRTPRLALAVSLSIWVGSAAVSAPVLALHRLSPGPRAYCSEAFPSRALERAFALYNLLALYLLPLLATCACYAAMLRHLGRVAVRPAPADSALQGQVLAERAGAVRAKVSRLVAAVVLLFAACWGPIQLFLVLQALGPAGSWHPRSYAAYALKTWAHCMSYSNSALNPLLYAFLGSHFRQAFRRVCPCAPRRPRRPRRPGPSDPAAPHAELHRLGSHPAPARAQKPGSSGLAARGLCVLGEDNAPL
Summary of the method: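 Membranes came from CHO/dhfr− cells stably expressing human hOT7T175 (clone h175 KB34) and were diluted 250-fold for use. Binding of 125I-metastin (40-54) was run in 20 mM Tris, 2.5 mM magnesium acetate and 2 mM EGTA, pH 7.4, with protease inhibitors, either without BSA or with 1 mg/ml BSA.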

Compound	melting point	IC50 [1]
Cl.N#Cc1c(-c2cccc(NC(=O)[C@H]3CCCN3)c2)cc(-c2ccc(Cl)cc2O)nc1NC(=O)c1ccno1 [Example 295, N-(3-{6-(4-chloro-2-hydroxyphenyl)-3-cyano-2-[(isoxazol-5-ylcarbonyl)amino]pyridin-4-yl}phenyl)-D-prolinamide hydrochloride]	≥ 250 °C (dec.)	≤ 10 µM
Cl.N#Cc1c(-c2cccc(NC(=O)[C@H]3CCCN3)c2)cc(-c2ccc(Cl)cc2O)nc1NC(=O)c1ccco1 [Example 296, N-{3-[6-(4-chloro-2-hydroxyphenyl)-3-cyano-2-(2-furoylamino)pyridin-4-yl]phenyl}-D-prolinamide hydrochloride]	208 to 213 °C	≤ 10 µM
Cl.N#Cc1c(-c2cccc(NC(=O)[C@@H]3C[C@@H](O)CN3)c2)cc(-c2ccc(F)cc2O)nc1NC(=O)c1ccco1 [Example 298, (4R)—N-{3-[3-cyano-6-(4-fluoro-2-hydroxyphenyl)-2-(2-furoylamino)pyridin-4-yl]phenyl}-4-hydroxy-L-prolinamide hydrochloride]	260 to 262 °C	≤ 10 µM
CN1C[C@H](O)C[C@H]1C(=O)Nc1cccc(-c2cc(-c3ccc(F)cc3O)nc(NC(=O)c3ccco3)c2C#N)c1.Cl [Example 299, (4R)—N-{3-[3-cyano-6-(4-fluoro-2-hydroxyphenyl)-2-(2-furoylamino)pyridin-4-yl]phenyl}-4-hydroxy-1-methyl-L-prolinamide hydrochloride]	215 to 217 °C	≤ 10 µM
COC[C@H](N)C(=O)Nc1cccc(-c2cc(-c3ccc(F)cc3O)nc(NC(=O)c3ccco3)c2C#N)c1.Cl [Example 301, N-(3-cyano-6-(4-fluoro-2-hydroxyphenyl)-4-{3-[(O-methyl-L-seryl)amino]phenyl}pyridin-2-yl)-2-furamide hydrochloride]	224 to 230 °C	≤ 10 µM
CCN(CC)[C@@H](COC)C(=O)Nc1cccc(-c2cc(-c3ccc(F)cc3O)nc(NC(=O)c3ccco3)c2C#N)c1.Cl [Example 306, N-[3-cyano-4-{3-[(N,N-diethyl-O-methyl-L-seryl)amino]phenyl}-6-(4-fluoro-2-hydroxyphenyl)pyridin-2-yl]-2-furamide hydrochloride]	192 to 196 °C	≤ 10 µM
CC(=O)NCCNc1cccc(-c2cc(-c3ccc(F)cc3O)nc(NC(=O)c3ccco3)c2C#N)c1 [Example 307, N-[4-(3-{[2-(acetylamino)ethyl]amino}phenyl)-3-cyano-6-(4-fluoro-2-hydroxyphenyl)pyridin-2-yl]-2-furamide]	158 to 160 °C	≤ 10 µM
CN(C)CCNC(=O)c1cccc(-c2cc(-c3ccc(F)cc3O)nc(NC(=O)c3ccco3)c2C#N)c1.Cl [Example 309, N-[3-cyano-4-[3-({[2-(dimethylamino)ethyl]amino}carbonyl)phenyl]-6-(4-fluoro-2-hydroxyphenyl)pyridin-2-yl]-2-furamide hydrochloride]	200 to 204 °C	≤ 10 µM
CCN(CC)CCNC(=O)c1cccc(-c2cc(-c3ccc(F)cc3O)nc(NC(=O)c3ccco3)c2C#N)c1.Cl [Example 310, N-[3-cyano-4-[3-({[2-(diethylamino)ethyl]amino}carbonyl)phenyl]-6-(4-fluoro-2-hydroxyphenyl)pyridin-2-yl]-2-furamide hydrochloride]	200 to 204 °C	≤ 10 µM
CCCN(CCC)C(C)CC(=O)Nc1cccc(-c2cc(-c3ccc(F)cc3O)nc(NC(=O)c3ccco3)c2C#N)c1.Cl (centres unmarked) [Example 318, N-[3-cyano-4-(3-{[3-(dipropylamino)butanoyl]amino}phenyl)-6-(4-fluoro-2-hydroxyphenyl)pyridin-2-yl]-2-furamide hydrochloride]	198 to 200 °C	≤ 10 µM
CCN1CCCCC1CC(=O)Nc1cccc(-c2cc(-c3ccc(F)cc3O)nc(NC(=O)c3ccco3)c2C#N)c1.Cl (centres unmarked) [Example 322, N-[3-cyano-4-(3-{[(1-ethylpiperidin-2-yl)acetyl]amino}phenyl)-6-(4-fluoro-2-hydroxyphenyl)pyridin-2-yl]-2-furamide hydrochloride]	201 to 203 °C	≤ 10 µM
Cl.N#Cc1c(-c2cccc(N3CCCNCC3)c2)cc(-c2ccc(F)cc2O)nc1NC(=O)c1ccco1 [Example 326, N-[3-cyano-4-[3-(1,4-diazepan-1-yl)phenyl]-6-(4-fluoro-2-hydroxyphenyl)pyridin-2-yl]-2-furamide hydrochloride]	254 to 259 °C	≤ 10 µM
CN1CCN(c2cccc(-c3cc(-c4ccc(F)cc4O)nc(NC(=O)c4ccco4)c3C#N)c2)CC1.Cl [Example 327, N-{3-cyano-6-(4-fluoro-2-hydroxyphenyl)-4-[3-(4-methylpiperazin-1-yl)phenyl]pyridin-2-yl}-2-furamide hydrochloride]	254 to 259 °C	≤ 10 µM
CCN(CC)CCC(=O)Nc1cccc(-c2cc(-c3ccc(F)cc3O)nc(NC(=O)c3ccco3)c2C#N)c1.Cl [Example 328, N-[3-cyano-4-{3-[(N,N-diethyl-β-alanyl)amino]phenyl}-6-(4-fluoro-2-hydroxyphenyl)pyridin-2-yl]-2-furamide hydrochloride]	209 to 213 °C	≤ 10 µM
Cl.N#Cc1c(-c2cccc(NC(=O)CN)c2)cc(-c2ccc(F)cc2O)nc1NC(=O)c1ccco1 [Example 329, N-{3-cyano-6-(4-fluoro-2-hydroxyphenyl)-4-[3-(glycylamino)phenyl]pyridin-2-yl}-2-furamide hydrochloride]	229 to 236 °C	≤ 10 µM
CCN1CCC[C@H]1CC(=O)Nc1cccc(-c2cc(-c3ccc(F)cc3O)nc(NC(=O)c3ccco3)c2C#N)c1.Cl [Example 336, N-[3-cyano-4-[3-({[(2S)-1-ethylpyrrolidin-2-yl]acetyl}amino)phenyl]-6-(4-fluoro-2-hydroxyphenyl)pyridin-2-yl]-2-furamide hydrochloride]	182 to 187 °C	≤ 10 µM

The remaining lines, values ahead:

melting point	IC50 [1]	Compound
233 to 238 °C	≤ 10 µM	CCNC(CC)CC(=O)Nc1cccc(-c2cc(-c3ccc(F)cc3O)nc(NC(=O)c3ccco3)c2C#N)c1.Cl (centres unmarked) [Example 308, N-[3-cyano-4-(3-{[3-(ethylamino)pentanoyl]amino}phenyl)-6-(4-fluoro-2-hydroxyphenyl)pyridin-2-yl]-2-furamide hydrochloride]
262 to 263 °C	≤ 10 µM	CCN(CC)CC(=O)Nc1cccc(-c2cc(-c3ccc(F)cc3O)nc(NC(=O)c3ccco3)c2C#N)c1.Cl [Example 315, N-[3-cyano-4-{3-[(N,N-diethylglycyl)amino]phenyl}-6-(4-fluoro-2-hydroxyphenyl)pyridin-2-yl]-2-furamide hydrochloride]
223 to 224 °C	≤ 10 µM	CCN(C)CCC(=O)Nc1cccc(-c2cc(-c3ccc(F)cc3O)nc(NC(=O)c3ccco3)c2C#N)c1.Cl [Example 316, N-[3-cyano-4-{3-[(N-ethyl-N-methyl-β-alanyl)amino]phenyl}-6-(4-fluoro-2-hydroxyphenyl)pyridin-2-yl]-2-furamide hydrochloride]
171 to 175 °C	≤ 10 µM	CCC(CC(=O)Nc1cccc(-c2cc(-c3ccc(F)cc3O)nc(NC(=O)c3ccco3)c2C#N)c1)N(CC)CC.Cl (centres unmarked) [Example 319, N-[3-cyano-4-(3-{[3-(diethylamino)pentanoyl]amino}phenyl)-6-(4-fluoro-2-hydroxyphenyl)pyridin-2-yl]-2-furamide hydrochloride]
249 to 255 °C	≤ 10 µM	CCNC(C)CC(=O)Nc1cccc(-c2cc(-c3ccc(F)cc3O)nc(NC(=O)c3ccco3)c2C#N)c1.Cl (centres unmarked) [Example 320, N-[3-cyano-4-(3-{[3-(ethylamino)butanoyl]amino}phenyl)-6-(4-fluoro-2-hydroxyphenyl)pyridin-2-yl]-2-furamide hydrochloride]
197 to 199 °C	≤ 10 µM	CC(C)NC(C)CC(=O)Nc1cccc(-c2cc(-c3ccc(F)cc3O)nc(NC(=O)c3ccco3)c2C#N)c1.Cl (centres unmarked) [Example 321, N-[3-cyano-6-(4-fluoro-2-hydroxyphenyl)-4-(3-{[3-(isopropylamino)butanoyl]amino}phenyl)pyridin-2-yl]-2-furamide hydrochloride]
213 to 215 °C	≤ 10 µM	CC(N)CC(=O)Nc1cccc(-c2cc(-c3ccc(F)cc3O)nc(NC(=O)c3ccco3)c2C#N)c1.Cl (centres unmarked) [Example 337, N-[4-{3-[(3-aminobutanoyl)amino]phenyl}-3-cyano-6-(4-fluoro-2-hydroxyphenyl)pyridin-2-yl]-2-furamide hydrochloride]
233 to 234 °C	≤ 10 µM	CC(CC(=O)Nc1cccc(-c2cc(-c3ccc(F)cc3O)nc(NC(=O)c3ccco3)c2C#N)c1)N(C)C.Cl (centres unmarked) [Example 338, N-[3-cyano-4-(3-{[3-(dimethylamino)butanoyl]amino}phenyl)-6-(4-fluoro-2-hydroxyphenyl)pyridin-2-yl]-2-furamide hydrochloride]
193 to 195 °C	≤ 10 µM	CCN(CC)C(C)CC(=O)Nc1cccc(-c2cc(-c3ccc(F)cc3O)nc(NC(=O)c3ccco3)c2C#N)c1.Cl (centres unmarked) [Example 339, N-[3-cyano-4-(3-{[3-(diethylamino)butanoyl]amino}phenyl)-6-(4-fluoro-2-hydroxyphenyl)pyridin-2-yl]-2-furamide hydrochloride]

Reference: patent publication US20090156646A1, “PYRIDYLPHENOL COMPOUND AND USE THEREOF” (TAKEDA PHARMACEUTICAL COMPANY LIMITED, priority 2005, published 2009)
